The values that follow come from patent publication US20230012368A1 (Hoffmann-La Roche Inc., priority 2018, published 2023).

This assay deals with Acinetobacter baumannii ATCC 17978. In words: Antimicrobial susceptibility testing: 90% growth inhibitory concentration (IC90) determination. It counts as cell-based. The conditions noted are these: 90% growth inhibitory concentration, Acinetobacter baumannii ATCC17978, Iso-Sensitest broth, OD 600 nm over 16h, read-out: ATCC17978 IC90. The method, boiled down: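 Compounds serially twofold diluted (e.g. 50 to 0.097 μM final) in Iso-Sensitest broth, inoculated at ~5×10^(5) CFU/ml, incubated at 35±2° C. OD600 read every 20 minutes over 16h. IC90 taken as concentration inhibiting 90% of growth during logarithmic phase.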

The mark [1] stands for this setting: Acinetobacter baumannii, ATCC17978, 16 h.

Counter-ions that a name gives are not always drawn. Like-named read-outs stand apart in the source and are kept apart here.

`CCc1cc(Nc2nccn3c(-c4ccc(OCC#N)c(F)c4F)cnc23)ccc1C(=O)NCCNC(=O)CCCN` [Example 141, N-[2-(4-aminobutanoylamino)ethyl]-4-[[3-[4-(cyanomethoxy)-2,3-difluoro-phenyl]imidazo[1,2-a]pyrazin-8-yl]amino]-2-ethyl-benzamide formate]: the IC90 under setting [1] amounted to 70 nM. In the case of `C=Cc1cc(Nc2nccn3c(-c4ccc(OC(F)F)cc4)cnc23)ccc1C(=O)NC` [Example 92, 4-((3-(4-(difluoromethoxy)phenyl)imidazo[1,2-a]pyrazin-8-yl)amino)-N-methyl-2-vinylbenzamide], the IC90 under setting [1] worked out at 610 nM. The same measure, in the same setting: with `CCCc1cc(Nc2nccn3c(-c4ccc(OC(F)F)cc4)cnc23)ccc1C(=O)NC` [Example 152, 4-((3-(4-(Difluoromethoxy)phenyl)imidazo[1,2-a]pyrazin-8-yl)amino)-N-methyl-2-propylbenzamide] the figure was 1100 nM; with `COc1ccc(-c2cnc3c(Nc4ccc(C(=O)NCC5(O)CCNCC5)c(C)c4)nccn23)cc1F` [Example 285, 4-[[3-(3-fluoro-4-methoxyphenyl)imidazo[1,2-a]pyrazin-8-yl]amino]-N-[(4-hydroxypiperidin-4-yl)methyl]-2-methylbenzamide;2,2,2-trifluoroacetic acid], 2600 nM. Same read-out and setting: with `CCc1cc(Nc2nccn3c(-c4ccc(OC)c(F)c4F)cnc23)ccc1C(=O)NCC1CCN(CC(=O)O)CC1` [Example 559, 2-[4-[[[4-[[3-(2,3-difluoro-4-methoxy-phenyl)imidazo[1,2-a]pyrazin-8-yl]amino]-2-ethyl-benzoyl]amino]methyl]-1-piperidyl]acetic acid] the figure was 270 nM; with `CCc1cc(Nc2nccn3c(-c4ccc(Oc5ccncn5)c(F)c4F)cnc23)ccc1C(=O)N[C@@H](C)CNC(=O)[C@H](N)CCNC(=N)N` [Example 458, N-[(1S)-2-[[(2R)-2-amino-4-guanidino-butanoyl]amino]-1-methyl-ethyl]-4-[[3-(2,3-difluoro-4-pyrimidin-4-yloxy-phenyl)imidazo[1,2-a]pyrazin-8-yl]amino]-2-ethyl-benzamide; formic acid], 660 nM. As for `CCc1cc(Nc2nccn3c(-c4ccc(OC)c(F)c4F)cnc23)ccc1C(=O)N[C@H](C)CCN` [Example 303, N-[(2R)-4-aminobutan-2-yl]-4-[[3-(2,3-difluoro-4-methoxyphenyl)imidazo[1,2-a]pyrazin-8-yl]amino]-2-ethylbenzamide;hydrochloride], the IC90 under setting [1] was determined as 360 nM. As for `CCc1cc(Nc2nccn3c(-c4ccc(OC)c(F)c4F)cnc23)ccc1C(=O)NCCCCCc1nnc2ccccn12` [Example 533, N-(5-([1,2,4]triazolo[4,3-a]pyridin-3-yl)pentyl)-4-((3-(2,3-difluoro-4-methoxyphenyl)imidazo[1,2-a]pyrazin-8-yl)amino)-2-ethylbenzamide], the IC90 under setting [1] turned out to be 100 nM. Turning to `CCc1cc(Nc2nccn3c(-c4ccc(OC)c(F)c4F)cnc23)ccc1C(=O)NCCN1CCC[C@H](N)C1=O` [Example 347, N-[2-[(3S)-3-amino-2-oxopiperidin-1-yl]ethyl]-4-[[3-(2,3-difluoro-4-methoxyphenyl)imidazo[1,2-a]pyrazin-8-yl]amino]-2-ethylbenzamide], the IC90 under setting [1] came to 1100 nM. In the case of `Cc1cc(Nc2nccn3c(-c4ccc(Cl)cc4)cnc23)ccc1C(=O)N(C)CCC1CCNCC1` [Example 88, 4-((3-(4-chlorophenyl)imidazo [1,2-a]pyrazin-8-yl)amino)-N,2-dimethyl-N-(2-(piperidin-4-yl)ethyl)benzamide hydrochloride], the IC90 came out at 250 nM. For `CCc1cc(Nc2nccn3c(-c4ccc(OC)c(F)c4F)cnc23)ccc1C(=O)N[C@H](C)CNC(=N)C(C)C` [Example 502, 4-[[3-(2,3-difluoro-4-methoxyphenyl)imidazo[1,2-a]pyrazin-8-yl]amino]-2-ethyl-#N!-[(2#R!)-1-(2-methylpropanimidoylamino)propan-2-yl]benzamide], under setting [1], the IC90 amounted to 150 nM.

In the case of `CCc1cc(Nc2nccn3c(-c4ccc(OC)c(F)c4F)cnc23)ccc1C(=O)NCCC1CCN(CCC(=O)O)CC1` [Example 301, 3-[4-[2-[[4-[[3-(2,3-difluoro-4-methoxyphenyl)imidazo[1,2-a]pyrazin-8-yl]amino]-2-ethylbenzoyl]amino]ethyl]piperidin-1-yl]propanoic acid], the IC90 under setting [1] turned out to be 270 nM. As to `CCc1cc(Nc2nccn3c(-c4ccc(OC)c(F)c4F)cnc23)ccc1C(=O)NCC(O)CNC(=O)[C@@H](N)CCCNC(=N)N` (mixture of isomers) [Example 405, rac-N-(3-((R)-2-amino-5-guanidinopentanamido)-2-hydroxypropyl)-4-((3-(2,3-difluoro-4-methoxyphenyl)imidazo[1,2-a]pyrazin-8-yl)amino)-2-ethylbenzamide diformate], the IC90 was 360 nM. Take `COc1ccc(-c2cnc3c(Nc4ccc(C(=O)N(C)CC5CCNCC5)c(Cl)c4)nccn23)cc1F` [Example 205, 2-chloro-4-[[3-(3-fluoro-4-methoxyphenyl)imidazo[1,2-a]pyrazin-8-yl]amino]-N-methyl-N-(piperidin-4-ylmethyl)benzamide;hydrochlo-ride]: the IC90 under setting [1] was determined as 530 nM. For `N#CCOc1ccc(-c2cnc3c(Nc4ccc(C(=O)NCCc5ccncc5)c(Cl)c4)nccn23)c(F)c1F` [Example 75, 2-chloro-4-((3-(4-(cyanomethoxy)-2,3-difluorophenyl)imidazo [1,2-a]pyrazin-8-yl)amino)-N-(2-(pyridin-4-yl)ethyl)benzamide], under setting [1], the IC90 was 90 nM. The same measure, in the same setting: with `CCc1cc(Nc2nccn3c(-c4ccc(Oc5ccccn5)c(F)c4F)cnc23)ccc1C(=O)NCCNC(=O)[C@H](N)CCCNC(=N)N` [Example 422, N-[2-[[(2R)-2-amino-5-guanidino-pentanoyl]amino]ethyl]-4-[[3-[2,3-difluoro-4-(2-pyridyloxy)phenyl]imidazo [1,2-a]pyrazin-8-yl]amino]-2-ethyl-benzamide; formic acid] the figure was 870 nM; with `Cc1cc(Nc2nccn3c(-c4ccc(Cl)c(F)c4F)cnc23)ccc1C(=O)NCCN` [Example 249, N-(2-aminoethyl)-4-[[3-(4-chloro-2,3-difluorophenyl)imidazo[1,2-a]pyrazin-8-yl]amino]-2-methylbenzamide;hydrochlo-ride], 2500 nM; with `CCc1cc(Nc2nccn3c(-c4ccc(OC)c(F)c4F)cnc23)ccc1C(=O)N[C@@H](C)CNC(=N)C(C)C` [Example 503, 4-[[3-(2,3-difluoro-4-methoxyphenyl)imidazo[1,2-a]pyrazin-8-yl]amino]-2-ethyl-#N!-[(2#S!)-1-(2-methylpropanimidoylamino)propan-2-yl]benzamide], 450 nM. `CCc1cc(Nc2nccn3c(-c4ccc(OC)c(F)c4F)cnc23)ccc1C(=O)NCCCCN` [Example 514, N-(4-aminobutyl)-4-((3-(2,3-difluoro-4-methoxyphenyl)imidazo[1,2-a]pyrazin-8-yl)amino)-2-ethylbenzamide hydrochloride]: the IC90 was found to be 48 nM.

Consider `Cc1cc(Nc2nccn3c(-c4ccc(Cl)c(F)c4F)cnc23)ccc1C(=O)NCCCCN` [Example 202, N-(4-aminobutyl)-4-[[3-(4-chloro-2,3 difluorophenyl)imidazo[1,2-a]pyrazin-8-yl]amino]-2-methylbenzamide; hydrochlo-ride], for which the IC90 under setting [1] was 460 nM. With `CCN(CC)C(=O)c1ccc(Nc2nccn3c(-c4ccc(OC)cc4)cnc23)cc1C` [Example 220, N,N-diethyl-4-[[3-(4-methoxyphenyl)imidazo[1,2-a]pyrazin-8-yl]amino]-2-methylbenzamide], the IC90 under setting [1] turned out to be 1200 nM. On the same count and under the same terms, with `Cc1cc(Nc2nccn3c(-c4ccc(Cl)cc4)cnc23)ccc1C(=O)NCCC1CCNCC1` [Example 189, 4-[[3-(4-chlorophenyl)imidazo[1,2-a]pyrazin-8-yl]amino]-2-methyl-N-(2-piperidin-4-ylethyl)benzamide;hydrochlo-ride] the figure was 280 nM; with `CCc1cc(Nc2nccn3c(-c4ccc(Cl)c(F)c4F)cnc23)ccc1C(=O)NCCCN` [Example 229, N-(3-aminopropyl)-4-[[3-(4-chloro-2,3-difluorophenyl)imidazo[1,2-a]pyrazin-8-yl]amino]-2-ethylbenzamide;hydrochloride], 1200 nM. Same read-out and setting: with `CCc1cc(Nc2nccn3c(-c4ccc(OC)c(F)c4F)cnc23)ccc1C(=O)NCCC1CCNCC1` [Example 388, 4-[[3-(2,3-difluoro-4-methoxyphenyl)imidazo[1,2-a]pyrazin-8-yl]amino]-2-ethyl-N-(2-piperidin-4-ylethyl)benzamide; hydrochlo-ride] the figure was 200 nM; with `CCc1cc(Nc2nccn3c(-c4ccc(Oc5ccccn5)c(F)c4F)cnc23)ccc1C(=O)NCCNC(=O)[C@@H](N)CCCNC(=N)N` [Example 417, N-[2-[[(2S)-2-amino-5-guanidino-pentanoyl]amino]ethyl]-4-[[3-[2,3-difluoro-4-(2-pyridyloxy)phenyl]imidazo [1,2-a]pyrazin-8-yl]amino]-2-ethyl-benzamide; formic acid], 850 nM; with `Cc1cc(Nc2nccn3c(-c4ccc(OC(F)F)cc4)cnc23)ccc1C(=O)N(C)CC1(O)CCNCC1` [Example 260, 4-[[3-[4-(difluoromethoxy)phenyl]im-idazo[1,2-a]pyrazin-8-yl]amino]-N-[(4-hydroxypiperidin-4-yl)methyl]-N,2-dimethylbenzamide;hydrochlo-ride], 4300 nM. For `CCc1cc(Nc2nccn3c(-c4ccc(Cl)cc4F)cnc23)ccc1C(=O)NCCCN` [Example 283, N-(3-aminopropyl)-4-[[3-(4-chloro-2-fluorophenyl)imidazo[1,2-a]pyrazin-8-yl]amino]-2-ethylbenzamide; hydrochloride], the IC90 was 2000 nM.
